# In publication PMC10754118, “Lipophilic Nucleoside Triphosphate Prodrugs of Anti‐HIV Active Nucleoside Analogs as Potential Antiviral Compounds” (Advanced Science, 2023):
# Read-outs that look alike come from different tables or passages of the source.
# Columns and labels:
# HIV‐RT = target: T1, HIV‐RT (Human immunodeficiency virus type 1 group M subtype B, UniProt P03366); design: method as in PMID 37647547; conditions: cited from earlier work
# T1 construct: HIV reverse transcriptase (HIV‐RT); purchased Roboklon
# CEM/0 = experiment: in vitro; conditions: read-out: Toxicity CEM/0 CC50; 50% cytostatic concentration, CEM proliferation
# Protocol: (§1) All TriPPPro‐compounds 10 and 20, as well as their parent nucleosides and the corresponding NTPs, were evaluated for their antiviral activity (expressed as EC50 values) against HIV‐1 (wild‐type CEM/0 cells) and HIV‐2 (wild‐type CEM/0 cells and thymidine kinase‐deficient (CEM/TK^−) cells) with concomitant determination of cytotoxicity in the same cell line (Table 3 ).
# HIV‐2 [ROD)] = experiment: Anti-HIV activity, HIV-2 in thymidine kinase-deficient CEM/TK^− cells; format: cell-based
# HIV‐2 [ROD] = experiment: Anti-HIV activity, HIV-2 in wild-type CEM/0 cells; format: cell-based; conditions: wild-type CEM/0 cells; for EC50: mean ±SD n = 2–3, read-out: Antiviral activity CEM/0 HIV‐2 [ROD] EC50
# HIV‐1 [HE] = experiment: Anti-HIV activity, HIV-1 in wild-type CEM/0 cells; format: cell-based; conditions: wild-type CEM/0 cells; for EC50: mean ±SD n = 2–3, read-out: Antiviral activity CEM/0 HIV‐1 [HE] EC50
# pig liver esterase (PLE) = experiment: Hydrolysis with pig liver esterase (PLE); format: in vitro ADME; conditions: pig liver esterase (PLE) in PBS, PLE in PBS pH 7.3, 37 °C, read-out: PLE t 1/2 (converted)
# Description: Next, TriPPPro‐compounds 10 and 20 were exposed to PLE in PBS (pH 7.3) and the half‐lives of TriPPPro‐compounds 10 and 20 are listed in Table 1. […] In contrast, the cleavage of the AB (C4) masking group in TriPPPro‐compounds 10by–hy and 10bz–hz was triggered by ester hydrolysis and yielded the corresponding γ‐alkylated nucleoside triphosphate derivatives 20 (Figure 3B,D) and 21 (Figures S17 and S18, Supporting Information), respectively. […] Moreover, a very small amount of NDPs was observed, probably due to a reaction involving a nucleophilic reaction at the γ‐phosphate or γ‐phosphonate moiety (pathways d and f, Scheme 5). […]
# (§2) Part 4. Chemical Hydrolysis of TriPPPro-compounds 10 and 20.
# Second prepare 1.9 mM hydrolysis
# Part 5. Hydrolysis of TriPPPro-compounds 10 and 20 with PLE .
# Second, 125 µL DMSO and 833 µL
# 62.5 µL of PLE solution in PBS (100
# mixture was stored in the freezer (- 30 °C).
# by analytical HPLC (HPLC Method).
# similar to that for the chemical hydrolysis studies. […]
# (§3) Then, aliquots of 50 µL human
# in vitro [1] = conditions: human, CEM/0 cells (wild-type CD4+ T-cells)
# Protocol: as §1
# [2] = Chemical hydrolysis in phosphate buffer saline (PBS, pH 7.3); format: physicochemical; conditions: PBS pH 7.3, 37 °C, read-out: PBS pH 7.3 t 1/2 (converted)
# Protocol: as §2
# Second prepare 1.9 mM hydrolysis […]
# as §3
# in vitro [3] = conditions: human, plasma
# Protocol: First prepare 50 mM solutions of TriPPPro-compounds 10 and 20 in DMSO. […]
# First prepare 3.0 mM hydrolysis solutions of Tri PPPro-compounds 10 and 20 in DMSO and H2O: 21 µL stock solution (50 mM in DMSO) and 154 µL DMSO, and 175 µL Milli-Q water. Three-twelve different samples (20 […]
# The calculation of t1/2 was obtained using Origin again.
# (§4) Part 7. Hydrolysis of TriPPPro-compounds 10 and 20 in human plasma.
# µL 3.0 mM hydrolysis solutions) were prepared in 2 mL Eppendorf® vials. Then, aliquots of 50 µL human Plasma (Heparin or Citrate) were added to these samples and the reaction was started. The samples were […]
# incubated at 37 °C in a thermomixer for different time periods. The reaction was stopped by addition of 150 µL MeOH and kept on ice for 5 min. After centrifugation at 14,000 rpm for 22 min, the supernatants were filtered (Chromafil RC-20/15 MS, 0.2 μm) and stored in liquid nitrogen. When testing, aliquots of 25 0r 30 µL (injection volume) were analyzed by analytical HPLC (HPLC Method). The calculation of t1/2 was obtained using Origin […]
# Part 8. Preparation of cell extracts and human plasma. […]
# in vitro [4] = conditions: human
# Protocol: The hydrolysis properties of TriPPPro‐compounds 10 and 20 were evaluated in phosphate buffer saline (PBS, pH 7.3), pig liver esterase (PLE) or CEM/0 cell extracts. In both cases, hydrolysis products were analyzed by means of analytical RP18‐HPLC and the hydrolysis half‐lives (Table 1 , t1/2 ) of TriPPPro‐compounds 10 and 20 were calculated after complete consumption of the starting materials.
# The hydrolysis of TriPPPro‐compounds 10 and 20 was carried out with CEM/0 cell extracts as well. […]
# Part 6. Enzyme-Catalyzed Hydrolysis of TriPPPro-compounds 10 and 20 in CEM Cell […]
# First prepare 3.0 mM hydrolysis solutions of Tri PPPro-compounds 10 and 20 in DMSO and H2O: 21 µL stock solution (50 mM in DMSO) and 154 µL DMSO, and 175 µL Milli-Q water. Three-twelve different samples (20 µL 3.0 mM hydrolysis solutions) were prepared in 2 mL Eppendorf® vials. Then, aliquots of 50 µL human CEM cell extracts were added to these samples and the reaction was started. The samples were incubated at 37 °C in a thermomixer for different time periods. The reaction was stopped by addition of 150 µL MeOH and kept on ice for 5 min. After centrifugation at 14,000 rpm for 12 min, the supernatants were filtered (Chromafil RC-20/15 MS, 0.2 μm) and stored in liquid nitrogen. When testing, aliquots of 60 µL (injection volume) were analyzed by analytical HPLC (HPLC Method). The calculation of t1/2 was obtained using Origin again.
# as §4
# µL 3.0 mM hydrolysis solutions) were prepared in 2 mL Eppendorf® vials.
# [5] = thymidine kinase-deficient CEM/TK^− cells, mean ±SD n = 2–3; read-out: Antiviral activity CEM/TK^− HIV‐2 [ROD)] EC50
# [6] = Human immunodeficiency virus 2, CEM-TK(-), thymidine kinase-deficient CEM/TK^− cells, mean ±SD n = 2–3; read-out: Antiviral activity CEM/TK^− HIV‐2 [ROD)] EC50
# [7] = Human immunodeficiency virus 2, CCRF-CEM
# [8] = t 1/2 in human plasma (over heparin and citrate plasma)
# [9] = Human immunodeficiency virus 1, CCRF-CEM
Compound,CC50 (CEM/0) [µM],EC50 (HIV‐2 [ROD)]; [5]) [µM],EC50 (HIV‐2 [ROD]) [µM],EC50 (HIV‐1 [HE]) [µM],half-life at 0.45 mM (pig liver esterase (PLE)) [h],CC50 (in vitro [1]) [µM],EC50 (HIV‐2 [ROD)]; [6]) [µM],half-life at 1.9 mM [2] [days],EC50 (HIV‐2 [ROD]; [7]) [µM],half-life at 0.86 mM (in vitro [3]; Plasma (Citrate) t 1/2) [h],half-life at 0.86 mM (in vitro [3]; Plasma (Heparin) t 1/2) [h],half-life at 0.86 mM (in vitro [4]) [h],EC50 (HIV‐1 [HE]; [9]) [µM],also measured
Cc1cn([C@H]2C=C[C@@H](COP(=O)(O)OP(=O)(O)O)O2)c(=O)[nH]c1=O [d4TDP],–,–,–,–,–,–,–,–,–,–,–,–,–,accepted by HIV‐RT as a substrate (HIV‐RT): accepted
"Cc1cn([C@H]2C[C@H](F)[C@@H](COP(=O)(O)OP(=O)(O)OP(=O)(O)O)O2)c(=O)[nH]c1=O [FLTTP, reference compound]",> 100,4.92 ± 2.43,0.018 ± 0.009,0.0076 ± 0.0091,–,–,–,–,–,–,–,–,–,–
Cc1cn([C@H]2C=C[C@@H](COP(=O)(O)OP(=O)(O)OP(=O)(O)O)O2)c(=O)[nH]c1=O [d4TTP],–,–,–,–,–,–,–,–,–,–,–,–,–,accepted by HIV‐RT as a substrate (HIV‐RT): accepted
"Nc1nc(=O)n([C@@H]2CS[C@H](COP(=O)(O)OP(=O)(O)OP(=O)(O)O)O2)cc1F [FTCTP, reference compound]",> 100,0.025 ± 0.027,0.043 ± 0.04,0.028 ± 0.015,–,–,–,–,–,–,–,–,–,–
"O=c1[nH]c(=O)n([C@H]2C[C@H](F)[C@@H](COP(=O)(O)OP(=O)(O)OP(=O)(O)O)O2)cc1Cl [FddClUTP, reference compound]",> 100,> 100,0.65 ± 0.13,0.84 ± 0.86,–,–,–,–,–,–,–,–,–,–
"O=c1[nH]c(=O)n([C@H]2C[C@H](O)[C@@H](COP(=O)(O)OP(=O)(O)OP(=O)(O)O)O2)cc1/C=C/Br [BVDUTP, reference compound]",> 100,> 100,5.64 ± 4.45,4.73 ± 3.05,–,–,–,–,–,–,–,–,–,–
"CCCCCCCCCCCCCCCCCCP(=O)(OCc1ccc(OC(=O)CCCC)cc1)OP(=O)(O)OP(=O)(O)OC[C@@H]1C=C[C@H](n2cnc3c(NC4CC4)nc(N)nc32)C1 (stereo partly drawn) [10hz, γ‐(AB‐C4)‐γ‐C‐(alkyl‐C18)‐ABCTP]",–,–,–,–,1.11,38.2 ± 1.3,0.019 ± 0.001,22.2,0.17 ± 0.064,5.6,4.1,7.7,0.2,half-life at 0.86 mM (in vitro [3]; [8]): 4.1 to 5.6 h
"CCCCCCCCCCCCCCCCCCOP(=O)(OCCCC)OP(=O)(O)OP(=O)(O)OC[C@@H]1C=C[C@H](n2cnc3c(NC4CC4)nc(N)nc32)C1 (stereo partly drawn) [10hv, γ‐(C4;C18)‐ABCTP]",–,–,–,–,> 150,39 ± 4.7,0.0048 ± 0.0021,10.5,0.046 ± 0.016,> 20,> 8,3,0.024 ± 0.0014,"fold improved activity compared to the parent nucleoside, HIV-2 (HIV‐2 [ROD)]; CEM/TK^− cells, vs parent nucleoside): 410 fold; fold higher activity compared to the corresponding compound 20 (HIV‐2 [ROD)]; HIV-2, CEM/TK^− cells, vs 20h): 33 fold; improvement of antiviral activity in CEM/TK^− cells compared to wild-type CEM/0 cells (HIV‐2 [ROD)]; same compound, CEM/TK^− vs CEM/0): tenfold; fold improvement compared to cycloSal‐ABCMP, HIV-2 (HIV‐2 [ROD]): 16 fold; fold higher activity than the parent nucleoside, HIV-2 (HIV‐2 [ROD]; vs parent nucleoside): 80 fold; half-life at 0.86 mM (in vitro [3]; [8]): > 8 h; fold improvement compared to cycloSal‐ABCMP, HIV-1 (HIV‐1 [HE]): 30 fold; fold higher activity than the parent nucleoside, HIV-1 (HIV‐1 [HE]; vs parent nucleoside): ~400 fold"
"O=c1ccn([C@H]2C[C@H](F)[C@@H](COP(=O)(O)OP(=O)(O)OP(=O)(O)O)O2)c(=O)[nH]1 [FddUTP, reference compound]",> 100,35.4 ± 43.9,0.26 ± 0.32,0.15 ± 0.13,–,–,–,–,–,–,–,–,–,–
"CCCCCCCCCCCCCCCCCCOP(=O)(OCCCC)OP(=O)(O)OP(=O)(O)OC[C@H]1O[C@@H](n2cc(C)c(=O)[nH]c2=O)C[C@@H]1N=[N+]=[N-] (stereo partly drawn) [10bv, γ‐(alkyl‐C4;alkyl‐C18)‐AZTTP]",–,–,–,–,> 150,64.9,0.29 ± 0.15,> 83.3,0.026 ± 0.007,> 20,> 20,> 30,0.041 ± 0.019,half-life at 0.86 mM (in vitro [3]; [8]): > 8 h
"Nc1nc(NC2CC2)c2ncn([C@H]3C=C[C@@H](COP(=O)(O)OP(=O)(O)OP(=O)(O)O)C3)c2n1 [ABCTP, reference compound]",> 100,0.85 ± 0.4,1.02 ± 0.13,1.85 ± 2.14,–,–,–,–,–,–,–,–,–,–
"CCCCCCCCCCCCCCCCCCOP(=O)(O)OP(=O)(O)OP(=O)(O)OC[C@@H]1C=C[C@H](n2cnc3c(NC4CC4)nc(N)nc32)C1 [20h, γ‐C18‐ABCTP]",–,–,–,–,> 150,> 100,0.16 ± 0.16,> 83.3,0.42 ± 0.11,> 20,4.8,> 10,0.26 ± 0.13,–
